Assays:
Format in all cases: in vivo
[1] = tested on: Sphaerotheca fuliginea; experiment: Test Example 5: curative effect against cucumber powdery mildew; conditions: no addition
Method: (§1) Cucumber (cultivar: Sagamihanjiro Fushinari) was cultivated in a polyethylene pot having a diameter of 7.5 cm, and when the cucumber reached 1.5 leaf stage, the leaf adaxial surface was sprayed and inoculated with a suspension of conidia of Sphaerotheca fuliginea, the cucumber was cultivated in a room at 20° C. under the light for 3 days, and a chemical solution containing pyriofenone (dosage: 90 g ai/ha) or metrafenone (300 g ai/ha) prepared with an aqueous solution containing each product (0.025 to 4.0 v/v°/0) was applied (amount of solution applied: 800 L/ha) to the leaf adaxial surface by a spray gun. After the chemical solution dried, the cucumber was cultivated in a room at 20° C. under the light for 7 days. The lesion area ratio on the first leaf was examined, and the control value was calculated based on the following formula. Control value=(1−a/b)×100
(§2) a: lesion area ratio in treated plot, b: lesion area ratio in non-treated plot

[2] = tested on: Sphaerotheca fuliginea; experiment: Test Example 6: curative effect against cucumber powdery mildew; conditions: no addition
Method: as §1, with “product (0.01” for “product (0.025”, “to 5.0” for “to 4.0”, “for 6” for “for 7”
as §2

[3] = tested on: Sphaerotheca fuliginea; experiment: Test Example 7: curative effect against cucumber powdery mildew; conditions: no addition
Method: as §1, with “product (0.02” for “product (0.025”, “to 0.07” for “to 4.0”, “for 5” for “for 7”
as §2

[4] = tested on: Sphaerotheca fuliginea; experiment: Test Example 8: curative effect against cucumber powdery mildew; conditions: no addition
Method: as §1, with “(0.001” for “(0.025”, “5.0” for “4.0”
as §2

[5] = tested on: Sphaerotheca fuliginea; experiment: Test Example 9: curative effect against cucumber powdery mildew; conditions: no addition
Method: as §1, with “(0.005” for “(0.025”, “1.0” for “4.0”
as §2

[6] = tested on: Sphaerotheca fuliginea; experiment: Test Example 1: curative effect against cucumber powdery mildew with different temperatures; conditions: pyriofenone 90 g ai/ha, no component (b)
Method: (§3) Cucumber (cultivar: Sagamihanjiro Fushinari) was cultivated in a polyethylene pot having a diameter of 7.5 cm, and when the cucumber reached 1.5 leaf stage, the leaf adaxial surface was sprayed and inoculated with a suspension of conidia of Sphaerotheca fuliginea, the cucumber was cultivated in a room at 20° C. or 28° C. under the light for 3 days, and a chemical solution containing pyriofenone was applied (dosage: 90 g ai/ha, amount of solution applied: 800 L/ha) to the leaf adaxial surface by a spray gun. After the chemical solution dried, the cucumber was cultivated in a room at 20° C. or 28° C. under the light for 6 days. The lesion area ratio on the adaxial surface of the first leaf was examined, and the control value was calculated based on the following formula. Control value=(1−a/b)×100
as §2

[7] = tested on: Sphaerotheca fuliginea; experiment: Test Example 2: curative effect against cucumber powdery mildew; conditions: pyriofenone 90 g ai/ha, no addition
Method: Cucumber (cultivar: Sagamihanjiro Fushinari) was cultivated in a polyethylene pot having a diameter of 7.5 cm, and when the cucumber reached 1.5 leaf stage, the leaf adaxial surface was sprayed and inoculated with a suspension of conidia of Sphaerotheca fuliginea, the cucumber was cultivated in a room at 20° C. under the light for 3 days, and a chemical solution containing pyriofenone prepared with an aqueous solution containing each product (0.5 v/v°/0) was applied (dosage: 90 g ai/ha, amount of solution applied: 800 L/ha) to the leaf adaxial surface by a spray gun. After the chemical solution dried, the cucumber was cultivated in a room at 20° C. under the light for 6 days. The lesion area ratio on the adaxial surface of the first leaf was examined, and the control value was calculated based on the following formula. In Tables, “no addition” means the above treatment without adding the component (b) (the same applies hereinafter). Control value=(1−a/b)×100
as §2

[8] = tested on: Sphaerotheca fuliginea; experiment: Test Example 3: curative effect against cucumber powdery mildew; conditions: pyriofenone 90 g ai/ha, no addition
Method: as §3, with “C.” for “C. or 28° C.”, “pyriofenone prepared with an aqueous solution containing each product (0.05 to 0.25 v/v°/0)” for “pyriofenone”, “on” for “on the adaxial surface of”
as §2

[9] = tested on: Sphaerotheca fuliginea; experiment: Test Example 4: curative effect against cucumber powdery mildew; conditions: pyriofenone 90 g ai/ha, no addition
Method: Cucumber (cultivar: Sagamihanjiro Fushinari) was cultivated in a polyethylene pot having a diameter of 7.5 cm, and when the cucumber reached 1.5 leaf stage, the leaf adaxial surface was sprayed and inoculated with a suspension of conidia of Sphaerotheca fuliginea, the cucumber was cultivated in a room at 20° C. under the light to for 3 days, and a chemical solution containing pyriofenone prepared with an aqueous solution containing each product (0.025 to 0.25 v/v°/0) was applied (dosage: 90 g ai/ha, amount of solution applied: 800 L/ha) to the leaf adaxial surface by a spray gun. After the chemical solution dried, the cucumber was cultivated in a greenhouse for 4 days and then cultivated in a room at 20° C. under the light for 5 days. The lesion area ratio on the first leaf was examined, and the control value was calculated based on the following formula. Control value=(1−a/b)×100
as §2

[10] = tested on: Sphaerotheca fuliginea; experiment: Test Example 10: penetration effect against cucumber powdery mildew; conditions: pyriofenone 90 g ai/ha, no addition
Method: (§4) Cucumber (cultivar: Sagamihanjiro Fushinari) was cultivated in a polyethylene pot having a diameter of 7.5 cm, and when the cucumber reached 1.5 leaf stage, a chemical solution containing pyriofenone (dosage: 90 g ai/ha) prepared with an aqueous solution containing each product (0.015 to 4.0 v/v %) was applied (amount of solution applied: 800 L/ha) to the leaf adaxial surface by a spray gun. After the chemical solution dried, the cucumber was cultivated in a room at 20° C. under the light for 4 days, the leaf abaxial surface was sprayed and inoculated with a suspension of conidia of Sphaerotheca fuliginea, and the cucumber was cultivated in a room at 20° C. under the light for 8 days. The lesion area ratio on the abaxial side of the first leaf was examined, and the control value was calculated based on the following formula. Control value=(1−a/b)×100
as §2

[11] = tested on: Oidiopsis sicula Scalia; experiment: Test Example 11: curative effect against sweet pepper powdery mildew; conditions: no addition
From the text: Sweet pepper (cultivar: Kyonami) was cultivated in a polyethylene pot having a diameter of 7.5 cm, and when the sweet pepper reached 8.5 leaf stage, the sweet pepper was dusted and inoculated with a suspension of conidia of Oidiopsis sicula Scalia, the sweet pepper was cultivated in a greenhouse under the light for 3 days, and a chemical solution containing pyriofenone (dosage: 90 g or 110 g ai/ha) prepared with an aqueous solution containing each product (0.07 to 4.0 v/v %) was applied (amount of solution applied: 600 L/ha) to the leaf adaxial surface by a spray gun. After the chemical solution dried, the cucumber was cultivated in a greenhouse under the light for 17 days. Each of eight lower leaves was investigated, and the disease severity was calculated in accordance with the following index. Further, the control value was calculated from the disease severity.
Disease index 0: No spore formation
Disease index 1: Formation of lesion (spores, foot cells, conidiogenous cells) is observed on the leaf abaxial side with an area of less than 10%.
Disease index 2: Formation of lesion (spores, foot cells, conidiogenous cells) is observed on the leaf abaxial side with an area of from 10% to 25%.
Disease index 3: Formation of lesion (spores, foot cells, conidiogenous cells) is observed on the leaf abaxial side with an area of from 26% to 50%. […]

[12] = tested on: Sphaerotheca fuliginea; experiment: Test Example 12: curative effect against cucumber powdery mildew; conditions: pyriofenone 90 g ai/ha, no addition
Method: as §4, with “stage, the leaf adaxial surface was sprayed and inoculated with a suspension of conidia of Sphaerotheca fuliginea, the cucumber was cultivated in a room at 20° C. under the light for 4 days, and” for “stage,”, “0.5” for “4.0”, “6” for “4 days, the leaf abaxial surface was sprayed and inoculated with a suspension of conidia of Sphaerotheca fuliginea, and the cucumber was cultivated in a room at 20° C. under the light for 8”, “on” for “on the abaxial side of”
as §2

[13] = tested on: Sphaerotheca fuliginea; experiment: Test Example 13: penetration effect against cucumber powdery mildew; conditions: pyriofenone 90 g ai/ha, no addition
Method: Cucumber (cultivar: Sagamihanjiro Fushinari) was cultivated in a polyethylene pot having a diameter of 7.5 cm, and when the cucumber reached 1.5 leaf stage, a chemical solution containing pyriofenone (dosage: 90 g ai/ha) prepared with an aqueous solution containing each product (0.015 to 1.0 v/v°/0) was applied (amount of solution applied: 800 L/ha) to the leaf adaxial surface by a spray gun. After the chemical solution dried, the cucumber was cultivated in a room at 20° C. under the light for 3 days, the leaf abaxial surface was sprayed and inoculated with a suspension of conidia of Sphaerotheca fuliginea, and the cucumber was cultivated in a room at 20° C. under the light for 7 days. The lesion area ratio on the abaxial side of the first leaf was examined, and the control value was calculated based on the following formula. Control value=(1−a/b)×100
as §2

Compound | Control value Metrafenone ([1]; metrafenone 300 g ai/ha) | Control value Metrafenone ([2]; metrafenone 300 g ai/ha) | Control value Metrafenone ([3]; metrafenone 300 g ai/ha) | Control value Metrafenone ([4]; metrafenone 300 g ai/ha) | Control value Metrafenone ([5]; metrafenone 300 g ai/ha) | Control value ([6]; 20° C.) | Control value ([6]; 28° C.) | Control value [7] | Control value [8] | Control value [9] | Control value Pyriofenone ([1]; pyriofenone 90 g ai/ha) | Control value Pyriofenone ([2]; pyriofenone 90 g ai/ha) | Control value Pyriofenone ([3]; pyriofenone 90 g ai/ha) | Control value Pyriofenone ([4]; pyriofenone 90 g ai/ha) | Control value Pyriofenone ([5]; pyriofenone 90 g ai/ha) | Control value [10] | Control value Dosage (g ai/ha) 90 ([11]; pyriofenone 90 g ai/ha) | Control value Dosage (g ai/ha) 110 ([11]; pyriofenone 110 g ai/ha) | Control value [12] | Control value [13]
COc1cc(C)c(C(=O)c2c(OC)ccc(Br)c2C)c(OC)c1OC [Metrafenone, metrafenone] | 65.7 | 60.2 | 65 | 60 | 75 | – | – | – | – | – | – | – | – | – | – | – | – | – | – | –
COc1cc(C)c(C(=O)c2c(OC)ncc(Cl)c2C)c(OC)c1OC [Pyriofenone, pyriofenone] | – | – | – | – | – | 53 | 80 | 55 | 55 | 30 | 63 | 71.6 | 65 | 65 | 70 | 12 | 7.6 | 6.1 | 68 | 40

From patent publication US11950592B2, “Method for enhancing plant disease controlling effects of aryl phenyl ketone fungicide, and method for controlling plant diseases” (ISHIHARA SANGYO KAISHA, LTD., priority 2016, dated 2024)
